Literature values in US6410601B1, “Histochrome and its therapeutic use in acute myocardial infarction and ischemic heart disease” (priority 1998, dated 2002).

Tested on: patients with acute myocardial infarction
Details: 10 mg/kg intravenously before thrombolytic reperfusion

## CCc1nc(C)ccc1O [Emoxipin]
26 patients, control group 39.2%
  reduction of the size of the asynergic zone in the myocardium: 59.5%
Control 28.1%
  frequency of myocardial arrhythmias: 13.9%
Monotherapy 309%
  lipid peroxidation in terms of malonic dialdehyde concentration: 60%
